The source of these data is patent US20140079741A1, “INHIBITION AND TREATMENT OF BIOFILMS” (priority 2011, published 2014).

Entries after “also recorded” stand apart in the source; their conditions may differ. A value given as a limit tells only on which side of the number the result lay.

Test [1] deals with C. albicans WT biofilms. In words: Biofilm survival by CFU determination (plating on YPD). Format: cell-based, Candida albicans. The following applies: WT biofilms grown with 500 μg/ml diclofenac, AmB 2.5-10 μg/ml, 24 h. How it is done:
Using the same setup as in Example 2, WT biofilms grown in the presence or absence of diclofenac (500 μg/ml) or Δefg1 biofilms were incubated with various concentrations of Amphotericin B (AmB) (2.5-10 μg/ml) for 24 h, both in the presence or absence of diclofenac. After washing, the remaining living cells within the biofilm were determined by plating on YPD and determination of colony forming units (CFUs).

Test [2] relates to C. albicans WT CAF2-1 biofilms. In words: Biofilm cell viability by CellTiter-Blue staining. Format: cell-based, Candida albicans. The conditions noted are these: 24 h. How it is done: To this end, cultures of the WT CAF2-1 were grown overnight (2*10^8 cells/ml) in YPD (1% yeast extract, 2% peptone, 2% glucose) and washed 3 times in PBS (pH 7.4). After dilution (OD600=0.5) in SC (1% CSM, complete amino acid supplement mixture, 1% YNB, yeast nitrogen base; 2% glucose), the cultures were resuspended (100 μl/well) in a 96well microtiter plate. After 1 h of adhesion, the adherent WT cells were incubated with or without 2 mM (about 500 μg/ml) diclofenac (in DMSO, resulting in final concentration of 2.4% DMSO) and allowed biofilm growth for 16 h in SC. Next, the resulting biofilms were washed with PBS and treated with various concentrations of miconazole (0-500 μM) for 24 h in the absence or presence of diclofenac. After washing, the remaining living cells using the CellTiter-Blue quantification method were determined.
(§1) Using the same setup as above, WT biofilms grown in the presence or absence of diclofenac (0.5-3 mM or 148-888 μg/mL) were incubated with various concentrations of Caspofungin (0-150 μM) for 24 h, both in the presence or absence of diclofenac. After washing, the remaining living cells within the biofilm was determined by CellTiter-Blue quantification. The MIC50 of caspofungin, diclofenac and the combination of both drugs against pretreated or mature C. albicans biofilms was quantified by XTT reduction assay (Ramage et al.).
Background: The colour change of resazurin is a common sign of viable cells or microbes.

For test [3], the system named is planktonic cultures of C. albicans CAF2-1. The test is described as follows: MIC50 against planktonic cultures (NCCLS M27-A3). Format: cell-based, Candida albicans. The following applies: Candida albicans, planktonic. How it is done:
(§2) Similar results were obtained by determination of the MIC50 values. The susceptibility testing and determination of minimal inhibitory concentrations (MIC) of diclofenac and caspofungin, and combinations thereof that inhibit fungal growth by 50% (MIC50) were performed according the NCCLS M27-A3 protocol (2008).

For test [4], the system named is biofilms of C. albicans CAF2-1. In words: MIC50 against biofilms (XTT reduction assay). Format: cell-based, Candida albicans. The conditions noted are these: for MIC50: Candida albicans. As for the experimental part: as §1, §2
For orientation: Tetrazolium dyes change colour on reduction, which living cells bring about.

The test system of test [5] is C. albicans biofilms grown on catheters. In words: In vitro biofilm drug susceptibility on polyurethane catheter pieces (CFU). Format: cell-based, Candida albicans. How it is done: In an alternative setup, in vitro biofilm drug susceptibility assays were performed using serum-coated 1 cm polyurethane catheter pieces (Arrow International Reading) as described previously. Biofilms were grown in RPMI 1640 (pH 7.0) and Candida cells were allowed to adhere to the substrate for 90 min.
Diclofenac (2 mM) was administered during the period of adhesion of C. albicans cells on the catheters and throughout the period of biofilm formation. Catheter fragments containing diclofenac-pretreated or untreated mature biofilms were washed and subsequently incubated with caspofungin (125 μM) or water in the presence or absence of diclofenac (2 mM) for 24 h, respectively. Biofilms were washed and quantified by determination of colony forming units. Untreated biofilms were considered as controls. Statistical analysis was performed using unpaired t-test; differences were considered significant if p<0.05. Data are the mean and SEM of five independent experiments using at least two catheters per test group.
Similar results were obtained when assessing the antibiofilm effect of caspofungin against mature biofilms, which were formed on diclofenac-soaked catheter fragments versus those formed on unsoaked catheter fragments.

For test [6], the system named is C. albicans CAF2 biofilms on implanted catheter fragments. In words: Rat subcutaneous catheter infection model (in vivo biofilm susceptibility). Also noted: species or system Candida albicans. As for the experimental part: A rat subcutaneous catheter infection model was used for in vivo biofilm susceptibility studies, in which 6 rats were treated with sterile saline (control, 40 catheters), 6 rats with diclofenac (48 catheters), 5 rats with caspofungin (40 catheters) and 6 rats with a combination of diclofenac and caspofungin (45 catheters).
Diclofenac and caspofungin solutions for intravenous injection were prepared in sterile physiological solution. The administration of diclofenac (3 mg/kg) started immediately after the catheter implant and continued daily up to 9 days. The treatment with caspofungin (3 mg/kg) was initiated after 48 h of in vivo biofilm development and maintained by daily injections for 7 days. Sterile saline was administered to the control group. Further analysis and quantification of the number of cells per individual biofilm was performed as previously described. Statistical analysis was performed using unpaired t-test; differences were considered significant if p<0.05. Data are the means and SEM of 2 independent experiments. Six independent catheters retrieved from each test group were used for scanning electron microscopy (SEM) analyses. Prior to the SEM analysis, each catheter fragment was cut longitudinally through the lumen and subsequently prepared for microscopy as previously described.

Test [7] deals with C. albicans biofilm cells. The conditions noted are these: caspofungin doses 0.05 μM-0.5 μM, background statement; cited from earlier work.
The test system of test [8] is C. albicans biofilms of wild type CAF2. The test is described as follows: Biofilm activity assay, crystal violet quantification (BEC50). Format: cell-based, Candida albicans. As for the experimental part:
(§3) Biofilm activity assay. The activity of miconazole and fluconazole against 16 h-old C. albicans biofilms (10^7 cells/well) was assessed using the crystal violet quantification method. The biofilm-eradicating capacity of a compound was determined as the minimal concentration resulting in 50% eradication of the biofilm (BEC50).
(§4) Miconazole sensitivity was analyzed of biofilms of C. albicans homozygous null mutants affected in genes involved in the cyclic AMP signaling pathway, namely Δcdc35, Δras1, Δpde1, Δpde2 and Δefg1. To this end, the inventors incubated 16 h-old C. albicans biofilms with various concentrations of miconazole for 24 h and determined the remaining biomass using the crystal violet quantification method.
To this end, cultures of the WT CAF2-1 were grown overnight (2×10^8 cells/ml) in YPD (1% yeast extract, 2% peptone, 2% glucose) and washed 3 times in PBS (pH 7.4). After dilution (OD600=0.5) in SC (1% CSM, complete amino acid supplement mixture, 1% YNB, yeast nitrogen base; 2% glucose), the cultures were resuspended (100 μl/well) in a 96well microtiter plate. After 1 h of adhesion, the adherent WT cells were incubated with or without 500 μg/ml diclofenac and allowed biofilm formation for 16 h. Next, the resulting biofilms were washed with PBS and treated with various concentrations of miconazole for 24 h in the absence or presence of diclofenac. After washing, the remaining biomass was determined using the crystal violet quantification method.
The biofilm-eradicating capacity of a compound was determined as the minimal concentration resulting in 50% eradication of the biofilm (BEC50).

Test [9] deals with C. albicans reintegrant Δefg1(EFG1) biofilms. The description is as above. Format: cell-based, Candida albicans. The following applies: for sensitivity of biofilms to miconazole: Δefg1(EFG1). How it is done:
as §3, §4

Test [10] relates to C. albicans Δefg1 biofilms. The description is as above. Format: cell-based, Candida albicans. As for the experimental part: as §3, §4
Test [11] relates to C. albicans biofilm cells. The test is described as follows: Intracellular accumulation of miconazole in biofilm cells (quantitative HPLC). Format: cell-based, Candida albicans. How it is done: Quantitative analysis of intracellular accumulation of miconazole in C. albicans biofilm cells. […] After incubation, treated biofilms were resuspended and pooled per 5 wells. After centrifugation, samples were taken for cell counting using a Thoma counting chamber, whereafter the pellet was resuspended in 300 μl 70% acetonitrile/30% PBS. Miconazole concentration in the cell lysates was determined using HPLC and normalized to the number of cells in the pellet. Statistical analysis was performed using unpaired student t test; differences were considered significant if p<0.05.
The intracellular accumulation of miconazole in Δefg1 and WT biofilms upon miconazole treatment was determined to investigate whether the increased miconazole sensitivity of Δefg1 biofilms is due to an increased uptake or decreased efflux of miconazole. To this end, 16 h-old Δefg1 and WT C. albicans biofilms were treated with different concentrations of miconazole for 4 h and the concentration of miconazole in the biofilm cells via HPLC analysis was determined.
The intracellular accumulation of miconazole in WT biofilms grown in the prescence or absence of 500 μg/ml diclofenac upon miconazole treatment was determined to investigate whether the increased miconazole sensitivity of diclofenac-treated WT biofilms is due to an increased uptake or decreased efflux of miconazole. […]

[12] abbreviates: rats, caspofungin 3 mg/kg 7 days with 48 h diclofenac-pretreatment and further diclofenac 3 mg/kg.

On to `C[C@@H]1[C@H](O)[C@@H](C)/C=C/C=C/C=C/C=C/C=C/C=C/C=C/[C@H](O[C@@H]2O[C@H](C)[C@@H](O)[C@H](N)[C@@H]2O)C[C@@H]2O[C@](O)(C[C@@H](O)C[C@@H](O)[C@H](O)CC[C@@H](O)C[C@@H](O)CC(=O)O[C@H]1C)C[C@H](O)[C@H]2C(=O)O` [Amphotericin B], for which, in test [1], the “drop of % survival compared to diclofenac-untreated biofilms” value was “about 5 fold”.
With `CC[C@H](C)C[C@H](C)CCCCCCCCC(=O)N[C@H]1C[C@@H](O)[C@@H](NCCN)NC(=O)[C@@H]2[C@@H](O)CCN2C(=O)[C@H]([C@H](O)CCN)NC(=O)[C@H]([C@H](O)[C@@H](O)c2ccc(O)cc2)NC(=O)[C@@H]2C[C@@H](O)CN2C(=O)[C@H]([C@@H](C)O)NC1=O` [caspofungin], the “drop of % survival compared to diclofenac-untreated biofilms” value in [2] (WT biofilms grown with 0.5-3 mM diclofenac, various caspofungin concentrations) was “about 5 fold”. The MIC50 in [3] (RPMI 1640, caspofungin alone) is below 0.05 µM; in test [3] (combination of caspofungin and 2 mM diclofenac) it was 0.23 µM; in [4] (biofilms, caspofungin alone), 6 µM; in test [4] (biofilms, caspofungin in combination with 2 mM diclofenac-pretreatment) it was below 0.75 µM; in test [4] (coincubation of mature biofilms with caspofungin and 2 mM diclofenac) it was 1.5 µM. Also, in test [4] (caspofungin alone), the “MIC50 against biofilms relative to MIC50 against planktonic cultures” value is listed as “at least 100 times”. The figures for the FICI in [4] (diclofenac coincubation/caspofungin combination) and in test [4] (diclofenac pretreatment/caspofungin combination) were 0.25 and 0.125, respectively. For the same molecule, the “reduction of the number of biofilm cells compared to control treatment” value in test [5] (125 μM caspofungin alone, 24 h, untreated/unsoaked catheters) is on record as “did not result in a statistically significant reduction; also recorded: did not display significant activity”; in [5] (biofilms grown on diclofenac-soaked catheters, 125 μM caspofungin) it was “at least 17 fold”. The “reduction of the number of in vitro biofilm cells compared to untreated biofilms” value in [5] (2 mM diclofenac during biofilm growth, then 125 μM caspofungin 24 h) is “at least 12 fold”. The “sterile catheter fragments retrieved” value worked out at 29% in test [6] (rats treated with both caspofungin and diclofenac); 7.5% in test [6] (rats treated with caspofungin alone). In addition, the “number of sterile catheters retrieved” value in test [6] (rats treated with both caspofungin and diclofenac (45 catheters)) is “thirteen”; in test [6] (rats treated with caspofungin alone (40 catheters)), “three”. The “reduction in biofilm cell numbers compared to control treatment” value in test [6] (setting [12]) was “more than 15 fold”. The “reduction in cell numbers compared to caspofungin treatment alone” value in [6] (setting [12]) is “more than 5 fold”. In addition, in test [6] (rats, caspofungin alone 3 mg/kg daily injections for 7 days), the “reduction in the number of surviving biofilm cells compared to control treatment” value is reported as “more than 10 fold”. The “biofilm structure by scanning electron microscopy” value in [6] (rats, caspofungin without diclofenac-pretreatment) was “biofilm cells formed in minor clusters”; in [6] (rats, diclofenac and caspofungin together), “only scattered yeast cells and hyphae were observed”. Besides, in test [7], the “metabolic activity of C. albicans biofilm cells” value is listed as “do not decrease the metabolic activity”.
For `Clc1ccc(COC(Cn2ccnc2)c2ccc(Cl)cc2Cl)c(Cl)c1` (stereo not shown) [miconazole], in test [8] (WT CAF2, 16 h-old biofilms, 24 h treatment, no diclofenac), the “BEC50 (minimal concentration resulting in 50% eradication of the biofilm)” value was above 250 µg/mL. Besides, the BEC50 in test [8] (WT biofilms grown and treated in presence of 500 μg/ml diclofenac) is 46 µg/mL; in test [9] (reintegrant Δefg1(EFG1), 16 h-old biofilms, 24 h treatment) it was 100 µg/mL; in test [10] (Δefg1, 16 h-old biofilms, 24 h treatment), 25 µg/mL. Moreover, the “sensitivity of biofilms to miconazole” value in test [8] (WT, high miconazole dose 250 μg/ml) is “resistant”; in test [9] (high miconazole dose 250 μg/ml) it was “as sensitive to miconazole as Δefg1 biofilms”; in test [9] (moderate miconazole doses 62-125 μg/ml), “intermediate miconazole sensitivity phenotype”; in [10] (Δefg1, low miconazole dose 31 μg/ml), “sensitive”. Also, the “intracellular miconazole levels in diclofenac-treated compared to untreated WT biofilm cells” value in [11] (62-250 μg/ml miconazole and 500 μg/ml diclofenac) is reported as “significantly increased”. The “intracellular miconazole levels in Δefg1 biofilm cells compared to WT biofilm cells” value in test [11] (62-250 μg/ml miconazole, 4 h) is given as “significantly increased”. Also, the “sensitivity to miconazole compared to untreated WT biofilms” value in test [2] (biofilms treated with 2 mM diclofenac, miconazole 0-500 μM) is reported as “increased sensitivity”.
